Results reported in the NIST ThermoML archive (doi:10.1016/j.fluid.2015.03.030).
± gives the expanded uncertainty stated by the source.

Assay: Boiling temperature at pressure P
Settings: Liquid, Ebulliometric method (Recirculating still)

O=C1OC(=O)c2cc(Cl)ccc21 [4-chlorophthalic anhydride]
Settings	Boiling temperature at pressure P [°C]
3.412 kPa	174.12 ± 0.38
4.468 kPa	181.16 ± 0.36
5.15 kPa	184.99 ± 0.31
5.626 kPa	187.38 ± 0.27
6.455 kPa	191.23 ± 0.26
7.207 kPa	194.4 ± 0.22
8.268 kPa	198.19 ± 0.2
9.221 kPa	201.31 ± 0.18
10.66 kPa	205.62 ± 0.17
11.74 kPa	208.48 ± 0.15
12.99 kPa	211.60 ± 0.14
14.48 kPa	214.97 ± 0.13
15.93 kPa	217.97 ± 0.12
17.17 kPa	220.36 ± 0.11
18.59 kPa	222.89 ± 0.11
20.24 kPa	225.72 ± 0.1
21.71 kPa	228.1 ± 0.1
23.52 kPa	230.67 ± 0.09
25.37 kPa	233.31 ± 0.09
27.38 kPa	235.90 ± 0.08
29.59 kPa	238.67 ± 0.08
31.99 kPa	241.41 ± 0.08
34.47 kPa	244.18 ± 0.07
37.26 kPa	247.0 ± 0.07
40.2 kPa	249.76 ± 0.07
43.82 kPa	252.96 ± 0.06
46.79 kPa	255.48 ± 0.06
50.5 kPa	258.40 ± 0.06
54.42 kPa	261.32 ± 0.06
58.75 kPa	264.30 ± 0.06
63.31 kPa	267.29 ± 0.05
68.3 kPa	270.4 ± 0.05
72.98 kPa	273.1 ± 0.05
79.29 kPa	276.50 ± 0.05
86.41 kPa	280.09 ± 0.05
92.12 kPa	282.82 ± 0.05
99.1 kPa	286.02 ± 0.05
101 kPa	287 ± 0.05

O=C1OC(=O)c2cc(F)ccc21 [5-fluoro-1,3-isobenzofurandione]
Settings	Boiling temperature at pressure P [°C]
3.549 kPa	153.68 ± 0.36
4.301 kPa	158.39 ± 0.32
5.517 kPa	164.86 ± 0.28
6.582 kPa	169.60 ± 0.23
7.86 kPa	174.33 ± 0.21
8.973 kPa	178.04 ± 0.18
10.5 kPa	182.54 ± 0.16
12.25 kPa	187.07 ± 0.15
13.2 kPa	189.31 ± 0.13
15.16 kPa	193.52 ± 0.12
17.63 kPa	198.20 ± 0.11
18.81 kPa	200.23 ± 0.1
21.16 kPa	204.02 ± 0.1
23.05 kPa	206.79 ± 0.09
26 kPa	210.78 ± 0.08
31.21 kPa	216.91 ± 0.08
36.41 kPa	222.26 ± 0.07
40.95 kPa	226.48 ± 0.07
45.02 kPa	229.90 ± 0.06
47.3 kPa	231.69 ± 0.06
48.21 kPa	232.43 ± 0.06
51.3 kPa	234.71 ± 0.06
53.29 kPa	236.12 ± 0.06
55.87 kPa	237.93 ± 0.06
57.3 kPa	238.87 ± 0.06
59.62 kPa	240.39 ± 0.06
65.49 kPa	244.02 ± 0.06
69.16 kPa	246.14 ± 0.05
73.58 kPa	248.63 ± 0.05
78.49 kPa	251.18 ± 0.05
85.68 kPa	254.76 ± 0.05
90.57 kPa	257.03 ± 0.05
93.83 kPa	258.51 ± 0.05
96.02 kPa	259.49 ± 0.05
97.24 kPa	260.02 ± 0.05
101.21 kPa	261.70 ± 0.05
